# Results from patent US20250236589A1, “THERAPEUTIC PHENETHYLAMINE COMPOSITIONS AND METHODS OF USE” (Cybin IRL Limited, priority 2022, published 2025).
# Where two headings read alike, the source gives them in different places. Marks after values point to notes of the source that are not given here.
# How the values were obtained:
# [1] = cited from earlier work
# [2] = molecular target: 5-HT1A receptors (Homo sapiens (Human), UniProt P08908); experiment: 5-HT1A radioligand binding ([3H]8-OH-DPAT)
# Procedure: In another series of 5-HT1A,2A,2B radioligand competition binding assays, the conditions were as follows: For 5-HT1A assays, cell membrane homogenates (˜30 μg protein) derived from HEK-293 cells expressing human 5-HT1ARs were incubated with 0.5 nM [^3H]8-hydroxy-2-(di-n-propylamino)tetralin ([^3H]8-OH-DPAT) for 60 min at room temperature in the presence or absence of the test article. Non-specific binding was determined in the presence of 10 μM 8-OH-DPAT. Samples were then analyzed as described above, with only immaterial differences. […] Samples were then analyzed as described above.
# [3] = In vitro liver microsome stability (RLM); format: in vitro ADME; settings: rat, rat liver microsomes, 0.5 mg/mL microsomes, NADPH, read-out: RLM, t1/2
# Procedure: (§1) In vitro stability was determined in Human (HLM), Rat (RLM), Mouse (MsLM), and dog (DLM) Liver Microsomes. All liver microsomes were purchased from a commercial supplier (e.g. XenoTech). The reaction mixture, minus NADPH, was prepared as described below. The test compound was added into the reaction mixture at a final concentration of 1 μM or co-dosed with their deuterated analog(s) at 1 μM each. The control compound, testosterone, was run simultaneously with the test compound in a separate reaction. The reaction mixture (without cofactor) was equilibrated in a shaking water bath at 37° C. for 5 minutes. The reaction was initiated by the addition of the cofactor, and the mixture was incubated in a shaking water bath at 37° C. Aliquots (150 μL) were withdrawn at 0, 5, 10, 20, 30, 60, and 120 minutes. Test compound and testosterone samples were immediately combined with 150 μL of ice-cold acetonitrile (ACN) containing 0.1% formic acid and internal standard to terminate the reaction. The samples were then mixed and centrifuged to precipitate proteins. All samples were assayed by LC-MS/MS using electrospray ionization. The peak area response ratio (PARR) of analyte to internal standard at each time point was compared to the PARR at time 0 to determine the percent remaining at each time point. Half-lives were calculated using GraphPad software, fitting to a single-phase exponential decay equation.
# [4] = molecular target: T1, 5-HT2A receptor (Homo sapiens (Human), UniProt P28223); experiment: 5-HT2A radioligand competition binding ([3H]LSD or [3H]ketanserin)
# [5] = molecular target: human 5-HT2B receptor (Homo sapiens (Human), UniProt P41595); experiment: 5-HT2B functional assay, IP1 (IPOne); format: cell-based
# Sequence of human 5-HT2B receptor (P41595 whole entry, looked up): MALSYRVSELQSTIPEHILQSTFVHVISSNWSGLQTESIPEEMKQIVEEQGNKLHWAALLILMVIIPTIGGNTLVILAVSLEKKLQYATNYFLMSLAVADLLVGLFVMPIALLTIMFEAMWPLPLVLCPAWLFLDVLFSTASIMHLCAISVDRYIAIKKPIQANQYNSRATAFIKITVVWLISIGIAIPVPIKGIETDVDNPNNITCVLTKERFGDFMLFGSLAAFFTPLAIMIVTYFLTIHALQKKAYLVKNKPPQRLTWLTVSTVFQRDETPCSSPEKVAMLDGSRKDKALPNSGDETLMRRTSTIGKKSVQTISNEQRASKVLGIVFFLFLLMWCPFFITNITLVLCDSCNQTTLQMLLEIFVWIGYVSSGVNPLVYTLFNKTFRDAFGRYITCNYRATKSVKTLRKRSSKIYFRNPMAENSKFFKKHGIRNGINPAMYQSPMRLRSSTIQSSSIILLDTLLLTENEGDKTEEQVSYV
# Procedure: 5-HT2A,2B,2C receptor-mediated Gq activation—canonical signaling pathways—[phosphoinositide hydrolysis leading to the production of inositol phosphate 1 (IP1, IPOne, Cisbio assay) or direct G-protein activation using TRUPATH technology]were measured as previously described (Porter, R. H. P., Benwell, K. R., Lamb, H., Malcolm, C. S., Allen, N. F., Revell, D. F., Adams, D. R. and Sheardown, M. J., 1999, Functional characterization of agonists at recombinant human 5-HT2a, 5HT2b and 5-HT2c receptors in CHO-K1 cells, Brit J Pharmacol 128, 13; Olsen, R. H. J., DiBerto, J. F., English, J. G. et al. TRUPATH, an open-source biosensor platform for interrogating the GPCR transducerome. […] Briefly, for the IPOne assay, for 5-HT2ARs, CHO-K1 or HEK-293 cells were incubated with test articles and 5-HT (positive control) in stimulation buffer containing LiCl. After incubation, cells were lysed and fluorescence acceptor and donor were added. FRET was measured after 60 min at room temperature using a microplate reader (Envision, Perkin Elmer). TRUPATH assays followed a similar workflow, except that different reagents were used, and LiCl was not included in the samples; the protocol was based on the report by Olsen, R. H. J. et al., cited above.
# [6] = Plasma and brain concentrations after dosing in mice (screening); format: in vivo, mouse; settings: for concentration at 15 min / concentration at 160 min / Kp at 160 min: mouse; for concentration at 15 min / concentration at 160 min: sc, mice, 3 mg/kg s.c.; for Kp at 160 min: brain/plasma, subcutaneous, 3 mg/kg, read-out: brain/plasma ratio, 160 min
# [7] = test system: mice; experiment: Head-twitch response (HTR) screening in mice; format: in vivo, mouse
# Procedure: Protocols were followed according to Canal C E, Morgan D. Head-twitch response in rodents induced by the hallucinogen 2,5-dimethoxy-4-iodoamphetamine: a comprehensive history, a re-evaluation of mechanisms, and its utility as a model. […] Mice were housed in standard laboratory cages with ad libitum access to food and water and were acclimated to the vivarium for at least one week prior to testing in a procedure room. In a typical experiment, mice were injected 3 mg/kg of test article subcutaneously. Mice were placed immediately thereafter in a clear, polycarbonate box (46×20×20 cm), and HTRs were counted at various time points after administration using hand-held tally counters. In a separate experiment, plasma and brain samples were collected at 15 and 160 minutes after administration of test compounds to measure plasma and brain concentrations. Quantification was performed using LC-MS/MS method (LLOQ, 9 nM).
# [8] = molecular target: T1, 5-HT2A receptor; experiment: 5-HT2A functional assay, IP1 (IPOne); format: cell-based
# Procedure: After incubation, cells were lysed and fluorescence acceptor and donor were added. FRET was measured after 60 min at room temperature using a microplate reader (Envision, Perkin Elmer). TRUPATH assays followed a similar workflow, except that different reagents were used, and LiCl was not included in the samples; the protocol was based on the report by Olsen, R. H. J. et al., cited above.
# [9] = In vitro liver microsome stability (MsLM); format: in vitro ADME; settings: mouse, mouse liver microsomes, 0.5 mg/mL microsomes, NADPH, read-out: MsLM, t1/2
# Procedure: as §1, with “The peak area response ratio (PARR) of analyte to internal standard at each time point was compared to the PARR at time 0 to determine the percent remaining at each time point.” left out
# [10] = In vitro liver microsome stability (DLM); format: in vitro ADME; settings: dog, dog liver microsomes, 0.5 mg/mL microsomes, NADPH, read-out: DLM, t1/2
# Procedure: as §1, with “The peak area response ratio (PARR) of analyte to internal standard at each time point was compared to the PARR at time 0 to determine the percent remaining at each time point.” left out
# [11] = In vitro liver microsome stability (HLM); format: in vitro ADME; settings: human, human liver microsomes, 0.5 mg/mL microsomes, NADPH, read-out: HLM, t1/2
# Procedure: as §1, with “The peak area response ratio (PARR) of analyte to internal standard at each time point was compared to the PARR at time 0 to determine the percent remaining at each time point.” left out
# [12] = molecular target: MAO-A (Homo sapiens (Human), UniProt P21397); experiment: Recombinant human MAO-A activity (stability); format: in vitro ADME; settings: hrMAO 0.02 mg/mL, read-out: MAO-A, t1/2
# Sequence of MAO-A (P21397 whole entry, looked up): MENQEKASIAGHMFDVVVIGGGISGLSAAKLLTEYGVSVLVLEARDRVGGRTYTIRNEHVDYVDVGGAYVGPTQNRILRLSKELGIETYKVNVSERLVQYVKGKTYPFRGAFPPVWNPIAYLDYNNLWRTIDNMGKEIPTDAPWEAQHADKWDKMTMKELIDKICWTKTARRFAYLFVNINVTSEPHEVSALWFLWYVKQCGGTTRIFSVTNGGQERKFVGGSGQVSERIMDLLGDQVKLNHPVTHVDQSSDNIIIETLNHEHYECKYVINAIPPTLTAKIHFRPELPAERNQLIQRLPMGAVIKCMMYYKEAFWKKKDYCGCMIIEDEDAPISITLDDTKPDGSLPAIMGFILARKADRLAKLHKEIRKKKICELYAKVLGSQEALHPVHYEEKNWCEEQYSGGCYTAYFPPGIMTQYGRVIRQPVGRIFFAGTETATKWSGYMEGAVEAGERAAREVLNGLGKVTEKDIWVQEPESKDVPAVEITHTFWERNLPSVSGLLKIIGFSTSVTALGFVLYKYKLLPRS
# Procedure: hrMAO-A and MAO control were purchased from XenoTech. The reaction mixture was prepared as described below. The test compound was added into the reaction mixture at a final concentration of 1 μM or co-dosed with their deuterated analog at 1 μM each. The positive control kynuramine (25 μM) was run simultaneously with the test compound in a separate reaction. The reaction mixture (without test compounds or kynuramine) was equilibrated in a shaking water bath at 37° C. for 5 minutes. The reaction was initiated by the addition of the test compound or kynuramine, and the mixture was incubated in a shaking water bath at 37° C. Aliquots (150 μL) of the test compound reaction mixture were withdrawn at 0, 5, 10, 20, 30, 60, and 120 minutes. Aliquots (150 μL) of the positive control reaction mixture were withdrawn at 0 and 30 minutes. Test compound(s) and kynuramine samples were immediately combined with 150 μL of ice-cold 100% acetonitrile containing 0.1% formic acid and internal standard (0.2 μM metoprolol) to terminate the reaction. The samples were then mixed and centrifuged to precipitate proteins. All samples were assayed by LC-MS/MS. The peak area response ratio (PARR) of analyte to internal standard at each time point was compared to the PARR at time 0 to determine the percent remaining at each time point. Half-lives were calculated using GraphPad software, fitting to a single-phase exponential decay equation.
# [13] = brain, read-out: Brain, 160 min
# [14] = plasma, read-out: Plasma, 160 min
compound,measurement,setting,value
COc1cc(OC)c(OC)cc1CCN [2C—O],activity after oral administration,[1],inactive
"COc1cc(SCCC(F)F)c(OC)cc1CCN [Compound I-3, 2-(4-((3,3-difluoropropyl)thio)-2,5-dimethoxyphenyl)ethan-1-amine]",inhibition at 0.1 µM,[2]; 100 nM,10%
same,inhibition at 1 µM,[2]; 1 uM,63%
same,half-life at 1 μM,[3],1.85 h
same,Ki,[4],44 nM
same,affinity at 5-HT2A receptors (in words),[4],high affinity
same,Ki,"[4]; read-out: 5-HT2A, Ki, [3H]LSD, high-affinity active state",0.4 nM
same,EC50,[5],160 nM
same,Emax,"[5]; IP1 assay, constrained to 100%",100%
same,concentration at 15 min,"[6]; brain, read-out: Brain 15 min",670 nM
same,concentration at 160 min,[6]; [13],510 nM
same,Kp at 160 min,[6]; 160 min after 3 mg/kg,9.3
same,concentration at 15 min,"[6]; plasma, read-out: Plasma, 15 min",700 nM
same,concentration at 160 min,[6]; [14],55 nM
same,HTR 15-25 min,"[7]; mice, 3 mg/kg s.c.",5
same,HTR 160-170 min,"[7]; mice, 3 mg/kg s.c.",2.5
same,EC50,[8],10 nM
same,2A/2B EC50 Selectivity,[8]; IP1 assay,16
same,Emax,"[8]; IP1 assay, relative to 5-HT",93%
"[2H]C([2H])([2H])Oc1cc(SC(F)(F)F)c(OC([2H])([2H])[2H])cc1CCN [II-10, 2-(2,5-bis(methoxy-d3)-4-((trifluoromethyl)thio)phenyl)ethan-1-amine]",half-life at 1 μM,[9],> 2 h
same,half-life at 1 μM,[10],> 2 h
same,half-life at 1 μM,[3],0.988 h
same,Ki,[4],35 nM
same,affinity at 5-HT2A receptors (in words),[4],superior affinity
same,Ki,"[4]; read-out: 5-HT2A, Ki, [3H]ketanserin, high-affinity active state",0.54 nM
same,"brain/plasma ratio, 160 min",[6]; 160 min after 3 mg/kg,24.4
same,concentration at 160 min,[6]; [13],8800 nM
same,Kp at 160 min,[6]; 160 min after 3 mg/kg,24 to 32
same,concentration at 160 min,[6]; [14],360 nM
same,half-life at 1 μM,[11],> 2 h
same,HTR 15-25 min,[7]; measured 0-15 min,25.6 ##
same,5-HT2AR agonist activity (in words),[8],pronounced agonists
same,half-life at 1 μM,[12],> 2 h
